# Laboratory results from ChEMBL document CHEMBL3885861, “Open TG-GATES”.
# Organism: Rattus norvegicus
# Test: Open TG-GATES - Regimen: Single
# Type: toxicity, organism-based, Sprague-Dawley
# Set-up: regimen Single, gender Male, age 6 weeks
# Details: in vivo, sc, 0 mg/kg, route subcutaneous injection, dose 0 ug/Kg, dose level Control; for APTT / Bas / Eos / Fbg / Hb / Ht / Lym / MCH / MCHC / MCV / Mono / Neu / PT / Plat / RBC / Ret / WBC: tissue Blood; for KIDNEY_L / KIDNEY_R / KIDNEY_TOTAL: tissue Kidney; for LIVER: tissue Liver; for A/G / ALP / ALT / AST / BUN / CRE / Ca / Cl / DBIL / GLC / IP / K / LDH / Na / PL / RALB / TBIL / TC / TG / TP / gamma-GTP: tissue Plasma
smiles,measurement,setting,value
CC(=O)O.N=C(N)NCCC[C@@H](NC(=O)[C@@H]1CCCN1C(=O)[C@@H]1CSSCCC(=O)N[C@@H](Cc2ccc(O)cc2)C(=O)N[C@@H](Cc2ccccc2)C(=O)N[C@@H](CCC(N)=O)C(=O)N[C@@H](CC(N)=O)C(=O)N1)C(=O)NCC(N)=O [DESMOPRESSIN ACETATE],TERMINAL_BW,3 h,211.5 g
same,APTT,3 h,16.1 s
same,Bas,3 h,0%
same,Eos,3 h,0.8%
same,Fbg,3 h,234.4 mg/dL
same,Hb,3 h,12.9 g/dL
same,Ht,3 h,39.7%
same,Lym,3 h,77.8%
same,MCH,3 h,21.7 pg
same,MCHC,3 h,32.5%
same,MCV,3 h,66.7 fL
same,Mono,3 h,5.8%
same,Neu,3 h,16%
same,PT,3 h,12.1 s
same,Plat,3 h,119.2 x10_4/uL
same,RBC,3 h,595 x10_4/ul
same,Ret,3 h,11.1%
same,WBC,3 h,80.6 x10_2/uL
same,KIDNEY_L,3 h,0.9 g
same,KIDNEY_R,3 h,1 g
same,KIDNEY_TOTAL,3 h,1.9 g
same,LIVER,3 h,10.2 g
same,A/G,3 h,2.1
same,ALP,3 h,1272 IU/L
same,ALT,3 h,37.8 IU/L
same,AST,3 h,66.8 IU/L
same,BUN,3 h,12.2 mg/dL
same,CRE,3 h,0.3 mg/dL
same,Ca,3 h,11.1 mg/dL
same,Cl,3 h,104.2 meq/L
same,DBIL,3 h,0.01 mg/dL
same,GLC,3 h,188.6 mg/dL
same,IP,3 h,9.2 mg/dL
same,K,3 h,4.8 meq/L
same,LDH,3 h,104 IU/L
same,Na,3 h,138.6 meq/L
same,PL,3 h,149.4 mg/dL
same,RALB,3 h,3.7 g/dL
same,TBIL,3 h,0.042 mg/dL
same,TC,3 h,82.6 mg/dL
same,TG,3 h,81.6 mg/dL
same,TP,3 h,5.5 g/dL
same,gamma-GTP,3 h,0.8 IU/L
same,TERMINAL_BW,6 h,204.5 g
same,APTT,6 h,18 s
same,Bas,6 h,0%
same,Eos,6 h,1.2%
same,Fbg,6 h,239 mg/dL
same,Hb,6 h,12.9 g/dL
same,Ht,6 h,39.7%
same,Lym,6 h,75.6%
same,MCH,6 h,21 pg
same,MCHC,6 h,32.5%
same,MCV,6 h,64.6 fL
same,Mono,6 h,8.6%
same,Neu,6 h,14.4%
same,PT,6 h,12.6 s
same,Plat,6 h,109.8 x10_4/uL
same,RBC,6 h,616 x10_4/ul
same,Ret,6 h,8.8%
same,WBC,6 h,104 x10_2/uL
same,KIDNEY_L,6 h,0.9 g
same,KIDNEY_R,6 h,0.9 g
same,KIDNEY_TOTAL,6 h,1.8 g
same,LIVER,6 h,9.2 g
same,A/G,6 h,2.1
same,ALP,6 h,1325 IU/L
same,ALT,6 h,32 IU/L
same,AST,6 h,62 IU/L
same,BUN,6 h,12 mg/dL
same,CRE,6 h,0.4 mg/dL
same,Ca,6 h,11.2 mg/dL
same,Cl,6 h,105.2 meq/L
same,DBIL,6 h,0.01 mg/dL
same,GLC,6 h,199.2 mg/dL
same,IP,6 h,10 mg/dL
same,K,6 h,5 meq/L
same,LDH,6 h,99.4 IU/L
same,Na,6 h,137.8 meq/L
same,PL,6 h,145.6 mg/dL
same,RALB,6 h,3.7 g/dL
same,TBIL,6 h,0.048 mg/dL
same,TC,6 h,85.2 mg/dL
same,TG,6 h,53.6 mg/dL
same,TP,6 h,5.5 g/dL
same,gamma-GTP,6 h,1 IU/L
same,TERMINAL_BW,9 h,199.2 g
same,APTT,9 h,16.6 s
same,Bas,9 h,0%
same,Eos,9 h,1.2%
same,Fbg,9 h,230.8 mg/dL
same,Hb,9 h,12.8 g/dL
same,Ht,9 h,39.7%
same,Lym,9 h,66.6%
same,MCH,9 h,21.2 pg
same,MCHC,9 h,32.2%
same,MCV,9 h,65.8 fL
same,Mono,9 h,14%
same,Neu,9 h,18.2%
same,PT,9 h,12.7 s
same,Plat,9 h,119.2 x10_4/uL
same,RBC,9 h,603.8 x10_4/ul
same,Ret,9 h,9.5%
same,WBC,9 h,99.4 x10_2/uL
same,KIDNEY_L,9 h,0.9 g
same,KIDNEY_R,9 h,0.9 g
same,KIDNEY_TOTAL,9 h,1.8 g
same,LIVER,9 h,8.5 g
same,A/G,9 h,2.1
same,ALP,9 h,1072.6 IU/L
same,ALT,9 h,31 IU/L
same,AST,9 h,62.2 IU/L
same,BUN,9 h,11.6 mg/dL
same,CRE,9 h,0.3 mg/dL
same,Ca,9 h,10.8 mg/dL
same,Cl,9 h,105.8 meq/L
same,DBIL,9 h,0.012 mg/dL
same,GLC,9 h,189.6 mg/dL
same,IP,9 h,10.8 mg/dL
same,K,9 h,5 meq/L
same,LDH,9 h,88.8 IU/L
same,Na,9 h,138.2 meq/L
same,PL,9 h,140 mg/dL
same,RALB,9 h,3.6 g/dL
same,TBIL,9 h,0.046 mg/dL
same,TC,9 h,82.2 mg/dL
same,TG,9 h,52.4 mg/dL
same,TP,9 h,5.3 g/dL
same,gamma-GTP,9 h,0.6 IU/L
same,TERMINAL_BW,24 h,222.1 g
same,APTT,24 h,16.1 s
same,Bas,24 h,0%
same,Eos,24 h,1%
same,Fbg,24 h,241.7 mg/dL
same,Hb,24 h,12.7 g/dL
same,Ht,24 h,39.6%
same,Lym,24 h,75%
same,MCH,24 h,21.3 pg
same,MCHC,24 h,32.2%
same,MCV,24 h,66 fL
same,Mono,24 h,7.8%
same,Neu,24 h,16.2%
same,PT,24 h,12.1 s
same,Plat,24 h,118 x10_4/uL
same,RBC,24 h,599.6 x10_4/ul
same,Ret,24 h,9.9%
same,WBC,24 h,86.4 x10_2/uL
same,KIDNEY_L,24 h,0.9 g
same,KIDNEY_R,24 h,1 g
same,KIDNEY_TOTAL,24 h,1.9 g
same,LIVER,24 h,10.6 g
same,A/G,24 h,2
same,ALP,24 h,1741.4 IU/L
same,ALT,24 h,35.8 IU/L
same,AST,24 h,65.2 IU/L
same,BUN,24 h,16.4 mg/dL
same,CRE,24 h,0.4 mg/dL
same,Ca,24 h,11.2 mg/dL
same,Cl,24 h,104.6 meq/L
same,DBIL,24 h,0 mg/dL
same,GLC,24 h,192.4 mg/dL
same,IP,24 h,8.4 mg/dL
same,K,24 h,5.3 meq/L
same,LDH,24 h,138.4 IU/L
same,Na,24 h,138.6 meq/L
same,PL,24 h,156.2 mg/dL
same,RALB,24 h,3.7 g/dL
same,TBIL,24 h,0.016 mg/dL
same,TC,24 h,82.2 mg/dL
same,TG,24 h,125.2 mg/dL
same,TP,24 h,5.5 g/dL
same,gamma-GTP,24 h,1.2 IU/L
